Assay results reported in patent US8673594B2, “Methods for stimulating nervous system regeneration and repair by regulating arginase I and polyamine synthesis” (Research Foundation of City University of New York, priority 2000, dated 2014).

Tests used:
[1] = system: DRG neurons on MAG-expressing CHO cells; assay: Neurite outgrowth of DRG neurons on MAG-expressing or control CHO cells; type: cell-based; details: P0-1 DRG neurons, DFMO 1 mM
Method: After overnight incubation, neurons were fixed and immunostained for GAP 43. The longest neurite from each of 120-150 DRG neurons were measured. Results are shown as the mean neurite length+/−SEM.
FIG. 14: Over-Expression Of Arginase In Older DRG Neurons By Adenovirus-Mediated Gene Transfer Is Sufficient To Overcome Inhibition By MAG. Postnatal day 5 DRG neurons (0.5×10^6) were plated in 24-well plates and infected with adenovirus containing ArgI-GFP or GFP alone. Alter overnight culture, infected neurons were transferred to MAG-expressing (stippled bars) or control (black bars) CHO cells for neurite outgrowth. Neurons were fixed and immunostained for GAP43. The neurons with double staining of GAP43 and GFP were considered as positively infected. The length of the longest neurite per neuron was measured for 120-150 positively infected neurons. Results are shown as the average neurite length+/−SEM of GFP-infected (GFP) or ArgI-infected (ArgI) neurons grown on MAG.
Neurons were isolated essentially as described in Doherty at al., Nature, 343, pp. 464-66 (1990); Neuron, 5, pp. 209-19 (1990); and Kleitman at al., Culturing Nerve Cells, pp. 337-78, MIT Press, Cambridge, Mass./London, England (G. Banker and K Goslin, Eds.) (1991). […] Cells were counted with a Coulter counter. […]

[2] = system: cerebellar neurons on MAG-expressing CHO cells; assay: Neurite outgrowth of cerebellar neurons on MAG-expressing or control CHO cells; type: cell-based
Method: FIG. 2: Improved Axonal Growth on MAG Induced By Elevating cAMP Levels is Transcription-Dependent. (A) Isolated cerebellar neurons at a density of 20,000 neurons per well were plated onto a monolayer of either MAG-expressing Chinese hamster ovary (CHO) cells (striped bars) or control CHO cells (black bars) and cultured overnight before being fixed and immunostained for GAP43 to visualize the neurites. The length of the longest neurite per neuron, from 180-200 neurons, was measured and results are the average length+/−SEM. Where indicated, dibutyryl cAMP (dbcA) at 1 mM in the presence or absence of the inhibitor of transcription, 5,6-dichloro-1-b-D-ribofuranosylbenzimidazole (DRB) at 5 μM, was added to each culture. (B) Cerebellar neurons (1×10^6) were plated onto poly-L-lysine and cultured overnight with brain-derived neurotrophic factor (BDNF) at 200 ng/ml, (termed priming) in the presence or absence of DRB at 5 μM, before being transferred to the CHO cell monolayers.
FIG. 6: An Ornithine Decarboxylase (ODC) Inhibitor Abrogates the Blocking Effect of dbcAMP on the Inhibition of Axonal Outgrowth by MAG and Myelin. […] The longest neurite from at least 180-200 neurons were measured. Results are shown as the mean neurite length+/−SEM.
(§1) After further incubation, neurons were fixed and immunostained for GAP43. The longest neurite from each neuron for 180-200 neurons were measured. Results are shown as the mean neurite length+/−SEM.
FIG. 8: An Inhibitor Of ODC Blocks The Priming Effects Of GDNF On The Inhibition By MAG. […] After further incubation, neurons were fixed and immunostained for GAP43. The longest neurite from each neuron for 180-200 neurons were measured. Results are shown as the mean neurite length±SEM.
Primed neurons were transferred to either MAG-expressing or control CHO cells (A) or a substrate of CNS myelin (B) for further incubation. Neurons were then fixed and immunostained for GAP43. The longest neurite from each neuron was measured for 180-200 neurons. Results are shown as the percentage of control. […]
Neurons were isolated essentially as described in Doherty at al., Nature, 343, pp. 464-66 (1990); Neuron, 5, pp. 209-19 (1990); and Kleitman at al., Culturing Nerve Cells, pp. 337-78, MIT Press, Cambridge, Mass./London, England (G. Banker and K Goslin, Eds.) (1991). Briefly, for animals up to nine days of age, the cerebellum, from two animals were removed and combined in 5 ml of 0.025% trypsin in PBS, triturated, and incubated for a further 10 minutes (min.) at 37° C. Trypsinization was stopped by addition of 5 ml DMEM containing 10% fetal calf serum (FCS) and cells were centrifuged at 800 rpm for 6 min. […] For older DRG neurons, ganglia were removed from two animals and incubated in 5 ml of Sat medium containing 0.025% trypsin and 0.15% collagenase type I (Worthington) for 30 min. at 37° C. The ganglia were triturated with a fire-polished Pasteur pipette. Trypsinization was stopped by adding 5 ml of DMEM containing 10% FCS, centrifuged at 800 rpm for 6 min, and resuspended in 2 ml of SAT (DeBellard et al., 1996). Cells were counted with a Coulter counter.
Chinese hamster ovary (CHO) cells deficient in the dihydrofolate reductase (dhfr) gene (Urlaub and Chasin, Proc. Natl, Acad, Sci. 77, pp. 4216-20 (1980)) were transfected with a MAG-cDNA expression plasmid with the dhfr gene and the L-MAG cDNA, cells with multiple copies of dbfr were selected by growing in increasing concentrations of methotrexate, and the expression of MAG by individual transfected CHO cell lines characterized as described in Mukhopadhyay et al., Neuron, 13, pp. 757-67 (1994), which is incorporated herein by reference. The MAG-expressing transfected CHO cell line) (“CHO-MAG2”) in that publication was deposited on Jun. 27, 1996 with the American Type Culture Collection (ATCC) (Rockville, Md.) according to the provisions of the Budapest Treaty, and was assigned the ATCC accession number designated: ATCC CRL-12145. […]

[3] = system: cerebellar neurons on purified CNS myelin; assay: Neurite outgrowth of cerebellar neurons on purified CNS myelin substrate; type: cell-based
Method: Isolated cerebellar neurons at a density of 20,000 neurons per well were plated onto a substrate of purified CNS myelin and cultured overnight before being fixed and immunostained for GAP43. The length of the longest neurite per neuron from 180-200 neurons was measured and results are the average length+/−SEM. Where indicated, dibutyryl cAMP (dbcA) at 1 mM in the presence or absence of the inhibitor of transcription, 5,6-dichloro-1-b-D-ribofuranosylbenzimidazole (DRB) at 5 μM, was added to each culture. (B) Cerebellar neurons (1×10^6) were plated onto poly-L-lysine and cultured overnight with brain-derived neurotrophic factor (BDNF) at 200 ng/ml, (termed priming) in the presence or absence of DRB at 5 μM, before being transferred to the CNS myelin substrate.
The longest neurite from at least 180-200 neurons were measured. Results are shown as the mean neurite length+/−SEM.
as §1
Primed neurons were transferred to either MAG-expressing or control CHO cells (A) or a substrate of CNS myelin (B) for further incubation. Neurons were then fixed and immunostained for GAP43. The longest neurite from each neuron was measured for 180-200 neurons.
Trypsinization was stopped by addition of 5 ml DMEM containing 10% fetal calf serum (FCS) and cells were centrifuged at 800 rpm for 6 min. […] The ganglia were triturated with a fire-polished Pasteur pipette. […] Cells were counted with a Coulter counter.
The neurite outgrowth assay was carried out by adding 5×10^4 neurons to the immobilized myelin substrate or 2×10^4 neurons to the CHO cell monolayers. Briefly, confluent monolayers of control and MAG-expressing CHO cells were established over a 24-hour (h) period in individual chambers of an 8-well tissue culture slide (Lab-Tek). […] Culture medium was SATO containing 2% FCS.
GAP43 antibody was detected by staining with Texas Red and arginase antibody was detected with anti-biotin secondary antibody followed by Texas Red-conjugated streptavidin.
After periods of time as indicated, the co-cultures were fixed for 30 min with 4% paraformaldehyde and permeabilized with ice-cold methanol for 2 min. […] After three more washes, the slides were mounted in Permfluor (Baxter) and viewed with a Zeiss fluorescent microscope. The length of the longest neurite for each GAP43-positive neuron was determined using the Biological Detection System image analysis program (Pittsburgh).

arginase = target: T1, arginase (Rattus norvegicus, UniProt P07824); details: cited from earlier work
T1 sequence (P07824 1-323): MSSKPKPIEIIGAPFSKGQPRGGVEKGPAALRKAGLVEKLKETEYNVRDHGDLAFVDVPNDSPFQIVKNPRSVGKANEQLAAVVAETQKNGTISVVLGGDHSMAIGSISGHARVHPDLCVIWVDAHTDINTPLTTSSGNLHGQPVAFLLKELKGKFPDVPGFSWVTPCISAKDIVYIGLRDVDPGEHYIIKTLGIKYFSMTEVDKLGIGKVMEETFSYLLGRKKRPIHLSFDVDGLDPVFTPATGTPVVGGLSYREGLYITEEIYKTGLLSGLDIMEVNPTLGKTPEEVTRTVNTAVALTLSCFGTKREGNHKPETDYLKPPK

[4] = putrescine in the culture, no priming

**Q.** Which results are given for `Cl.NCCCC(N)(C(=O)O)C(F)F` (racemic) [DFMO, DL-a-difluoromethyl-ornithine hydrochloride]?
**A.** effect alone on neurite growth on control CHO cells, young DRG neurons [1]: no effect; effect on promotion of axonal growth by MAG in young DRG neurons ([1]; overnight): completely abolished; effect on the positive (priming) effect of BDNF on axonal growth in the presence of MAG ([2]; DFMO 1 mM during overnight priming with BDNF 200 ng/ml): completely abrogated; effect on the positive (priming) effect of GDNF on axonal growth in the presence of MAG ([2]; DFMO 1 mM during overnight priming with GDNF 200 ng/ml): completely abrogated; effect on the dbcAMP block of inhibition by MAG ([2]; DFMO 1 mM with dbcAMP 1 mM): lost; effect alone on neurite growth on control CHO cells ([2]; DFMO 1 mM, control CHO cells): no significant effect; effect alone on inhibition by MAG ([2]; DFMO 1 mM, no dbcAMP): no significant effect

**Q.** For `NCCCCN` [putrescine], which “putrescine concentration at which the blocking effect on myelin saturates” value ([3]; overnight priming) is on record?
**A.** Its value is “about 50 μM”.

**Q.** What about the “increase in axonal outgrowth on CNS myelin” value ([3]; priming with putrescine at 10 μM) of the same compound?
**A.** Its value is “two-fold”.

**Q.** What about the “block of inhibition of axonal growth by myelin, putrescine added without priming” value [3, 4] of the same compound?
**A.** Its value is “only partially blocks”.

**Q.** What about the “putrescine dose above which the blocking effect on MAG saturates” value ([2]; overnight priming) of the same compound?
**A.** Its value is “higher than 25 μM”.

**Q.** And the “effect of putrescine on BDNF priming blocked by DFMO (MAG)” value ([2]; putrescine (10 mM as printed elsewhere in the source) with DFMO 1 mM and BDNF during priming)?
**A.** Its value is “restored the priming effect of BDNF”.

**Q.** What about the “block of inhibition of axonal growth by MAG, putrescine added without priming” value [2, 4] of the same compound?
**A.** The value was “only partially blocks”.

**Q.** Which “effect of transcription inhibitor on the dbcAMP/BDNF block of MAG inhibition” value ([2]; DRB 5 μM with dbcAMP 1 mM or BDNF 200 ng/ml priming) does the source give for `OC[C@H]1O[C@@H](n2cnc3cc(Cl)c(Cl)cc32)[C@H](O)[C@@H]1O` [DRB, 5,6-dichloro-1-b-D-ribofuranosylbenzimidazole] here?
**A.** The value was “neither dbcAMP nor BDNF block inhibition”.

**Q.** With `N[C@@H](CCCCB(O)O)C(=O)O` [ABH, 2(S)-amino-6-boronohexanoic acid] as the compound, how does the “arginase inhibitor potency, in words” value (arginase) read?
**A.** The value was “most potent inhibitor of arginase identified to date”.
